In one assay the test system is 13 PDAC cell lines. In words: Phenotypic drug combination viability screen (ATPlite, 72 h), cell line panel. Format: cell-based, human. The settings on record: for number of cell lines with synergy with GEM: of 13 cell lines, Bliss model; for EC50: Homo sapiens. (Cellular ATP, detected with luciferase, serves as a proxy for viable cell number.)
Another assay has as its system Suit2-07 cells. Briefly: Cell proliferation assay, GEM + ATR inhibitor (Incucyte confluence, 72 h).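 On all read-outs here: Suit2-07 cells grown in 96-well plates at 37 °C, 5% CO2, raw 72 h confluence taken without normalizing to starting confluence, each experiment done in triplicate.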 The format is cell-based, human. The settings on record: for EC50: Homo sapiens, experiment GEM (GEM alone, in the series of the ATRi named in column Drug); for Response: R1, in % (unit assumed).

“And” between values parts separate entries of the source, which are not always exact repeats. Equal entries are not always repeated. Where two headings read alike, the source gives them in different places.

Protocol for Suit2-07 cells: Cells were seeded at 5000 cells/well into 96-well flat bottom plates (Eppendorf) and allowed to attach overnight. […] Cells were incubated for 72 h at 37 °C and 5% CO2. Cell confluence readouts at 72 h were either normalized to their initial confluence using the Incucyte software (AsPC-1) or used without prior normalization (all others). […] Each experiment was performed in triplicates, the data was plotted as mean ± standard deviation (s.d.).

For `COc1cc(N2CCC(N3CCN(C)CC3)CC2)ccc1Nc1ncc(Cl)c(Nc2ccccc2P(C)(C)=O)n1` [Brigatinib], the “number of cell lines with synergy with GEM” value with 13 PDAC cell lines was determined as 5 cell lines.

With `Nc1ccn([C@@H]2O[C@H](CO)[C@@H](O)C2(F)F)c(=O)n1` [GEM, Gemcitabine], the EC50 in the assay with 13 PDAC cell lines (read-out: EC50,GEM) was under 10 nM; with 13 PDAC cell lines (read-out: EC50) it was at least 1 nM; with Suit2-07 cells (72 h, Suit2-07, -log10 of EC50 [M], read-out: pEC50 (converted)) it was 8.32e-09 M; in the assay with Suit2-07 cells (72 h, Suit2-07, mean (one replicate), read-out: EC50 mean), 8.26e-09 M; in the assay on Suit2-07 cells (72 h, Suit2-07, replicate R1, read-out: EC50), 8.26e-09 M; with Suit2-07 cells (Suit2-07, -log10 of EC50 [M], read-out: pEC50 (converted)) it was 1.05e-08 M. Further, the Response in the assay on Suit2-07 cells (Suit2-07, GEM 1 nM, ATRi 0 nM (GEM)) was 97.46; in the assay on Suit2-07 cells (Suit2-07, GEM 3 nM, ATRi 0 nM (GEM)), 93.41; in the assay on Suit2-07 cells (Suit2-07, GEM 10 nM, ATRi 0 nM (GEM)), 45.15; in the assay on Suit2-07 cells (Suit2-07, GEM 30 nM, ATRi 0 nM (GEM)), 20.11; in the assay on Suit2-07 cells (Suit2-07, GEM 3000 nM, ATRi 0 nM (GEM)) it was 10.86; in the assay on Suit2-07 cells (Suit2-07, experiment GEM, GEM 1 nM, ATRi 0 nM), 98.60 and 97.96 and 97.60. For the same compound, the Response in the assay with Suit2-07 cells (Suit2-07, experiment GEM, GEM 3 nM, ATRi 0 nM) is 96.04 and 96.69 and 98.44; with Suit2-07 cells (Suit2-07, experiment GEM, GEM 10 nM, ATRi 0 nM), 49.03 and 57.12 and 55.81; in the assay with Suit2-07 cells (Suit2-07, experiment GEM, GEM 30 nM, ATRi 0 nM) it was 23.93 and 25.24 and 25.44; in the assay on Suit2-07 cells (Suit2-07, experiment GEM, GEM 100 nM, ATRi 0 nM) it was 15.01; with Suit2-07 cells (Suit2-07, experiment GEM, GEM 300 nM, ATRi 0 nM) it was 14.46; with Suit2-07 cells (Suit2-07, experiment GEM, GEM 1000 nM, ATRi 0 nM) it was 10.89. In addition, in the assay on Suit2-07 cells (Suit2-07, experiment GEM, GEM 3000 nM, ATRi 0 nM), the Response was 10.34.

Take `C[C@]12O[C@H](C[C@]1(O)CO)n1c3ccccc3c3c4c(c5c6ccccc6n2c5c31)CNC4=O` [Lestaurtinib]: in the assay with 13 PDAC cell lines, the “number of cell lines with synergy with GEM” value was 5 cell lines.
